# In patent publication US7604978B2, “Inhibition of biofilm formation” (Sequoia Sciences, Inc., priority 2004, dated 2009):
# Assays:
# Type in all cases: cell-based
# E. coli K12 [R1drd19] = assay: Inhibition of biofilm formation (biofilm mass, OD540)
# Method: (§1) Inhibition of biofilm formation by E. coli K12 [R1drd19], P. aeruginosa PAO1, and V harveyi BB120 by the addition of 10 μg/mL ursolic acid. For E. coli K12 [R1drd19], data were collected 16 hours after addition of ursolic acid to a 24 hour biofilm in LB medium; for P. aeruginosa PAO1, data were collected 18 hours after addition of ursolic acid with inoculation in LB medium plus 1% sodium citrate; and for V. harveyi BB120, data were collected 18 hours after addition of ursolic acid with inoculation in M9 medium. All biofilm mass readings at OD540 were normalized based on the reading of wild type without ursolic acid which was normalized to 1. One standard deviation is shown.
# P. aeruginosa PAO1 = assay: as above
# Method: as §1
# V. harveyi BB120 = assay: as above
# Method: as §1
# E. coli JM109 = assay: Inhibition of air-liquid interface biofilm; conditions: added with inoculation, E. coli JM109 in LB 0.2% glucose
# Method: as §1
# Example 1 was repeated, except ursolic acid was added with inoculation in E. coli JM109 grown in LB 0.2% glucose.
# E. coli K12 genes = assay: DNA microarray, genes repressed by ursolic acid
# Method: To identify the genes controlled by ursolic acid, E. coli K12 was grown in LB medium overnight, diluted 1:100 in fresh LB supplemented with 0, 10, or 30 μg/mL ursolic acid. The same amount of ethanol was supplemented to eliminate solvent effects. The cultures were grown to an OD600 of 0.9. The cells were centrifuged in a microcentrifuge for 15 seconds at 20,000×g in mini bead beater tubes (Biospec, Bartlesville, Okla.) that were cooled to −80° C. before sampling. The cell pellets were flash frozen in a dry ice-ethanol bath and stored at −80° C. until RNA isolation.
# To lyse the cells, 1.0 mL RLT buffer (Qiagen, Inc., Valencia, Calif.) and 0.2 mL 0.1 mm zirconia/silica beads (Biospec) were added to the frozen bead beater tubes containing the cell pellets. The tubes were closed tightly and beat for 30 seconds at the maximum speed in a mini bead beater (cat. no. 3110BX, Biospec). The total RNA was isolated by following the protocol of the RNeasy Mini Kit (Qiagen) including an on-column DNase digestion with RNase-free DNase I (Qiagen). OD260 was used to quantify the RNA yield. OD260/OD280 and 23S/16S rRNA were measured using a 2100 Bioanalyzer (Agilent Technologies, Palo Alto, Calif.) to check the purity and integrity of RNA (RNeasy Mini handbook, Qiagen).
# The E. coli DNA microarrays were prepared as described previously by Wei, Y. et al (Journal of Bacteriology, 2001, 183 (2) p. 545-556). Each gene probe was synthesized by PCR and has the size of the full open reading frame (200-2000 nt). The double-strand PCR products were denatured in 50% dimethyl sulfoxide and spotted onto aminosilane slides (Full Moon Biosystems, Sunnyvale, Calif.) as probes to hybridize with the mRNA-derived cDNA samples. It has been shown that each array can detect 4228 of the 4290 E. coli ORFs. Each gene has two spots per slide.
# Briefly, the total RNA from the E. coli K12 samples grown with and without ursolic acid was first converted into labeled cDNA. […] The Cy3-labeled sample without ursolic acid and the Cy5-labeled ursolic acid sample (with 10 or 30 μg/mL ursolic acid) were hybridized on the first slide. Similarly, the Cy5-labeled sample without ursolic acid and the Cy3-labeled ursolic acid sample were hybridized on the second slide. Since each gene has two spots on a slide, the two hybridizations generated eight data points for each gene (four points for the sample without ursolic acid and four points for the ursolic acid sample). The microarray experiments with dye-swapping were repeated for both concentrations of ursolic acid.
# The DNA microarrays were incubated in prehybridization solution (3.5×SSC [1×SSC is 0.15 M NaCl plus 0.015 M sodium citrate] [Invitrogen], 0.1% sodium dodecyl sulfate [SDS] [Invitrogen], and 0.1% bovine serum albumin [Invitrogen]) at 45° C. for 20 min. The arrays were rinsed with double-distilled water and were spun dry by centrifugation. Labeled cDNA (6 μg) was concentrated to 10 μl of total volume and was mixed with 10 μl of 4×cDNA hybridization solution (Full Moon Biosystems) and 20 μl of formamide (EM Science, Gibbstown, N.J.). The hybridization mix was heated to 95° C. for 2 min and was added to the DNA microarrays; each array was covered with a coverslip (Corning, Big Flats, N.Y.) and was incubated overnight at 37° C. for hybridization. When the hybridization was finished, the coverslips were removed in 1×SSC-0.1% SDS at room temperature, and the arrays were washed once for 5 min in 1×SSC-0.1% SDS at 40° C., twice for 10 min in 0.1×SSC-0.1% SDS at 40° C., and twice for 1 min in 0.1×SSC at 40° C. The arrays were quickly rinsed by dipping in room-temperature double-distilled water and were then spun dry by centrifugation. The hybridized slides were scanned with the Generation III Array Scanner (Molecular Dynamics Corp.). Readings at 570 and 670 nm was used to quantify the probes labeled with Cy3 and Cy5 separately. The signal was quantified with Array Vision 4.0 or 6.0 software (Imaging Research, St. Catherines, Ontario, Canada). […]
compound,measurement,setting,value
C[C@H]1[C@H](C)CC[C@]2(C(=O)O)CC[C@]3(C)C(=CC[C@@H]4[C@@]5(C)CC[C@H](O)C(C)(C)[C@@H]5CC[C@]43C)[C@H]12 [ursolic acid],formation of biofilms,E. coli K12 [R1drd19],reduces or inhibits the formation of biofilms
same,formation of biofilms,P. aeruginosa PAO1,reduces or inhibits the formation of biofilms
same,formation of biofilms,V. harveyi BB120,reduces or inhibits the formation of biofilms
same,air-liquid interface biofilm,E. coli JM109,inhibited air-liquid interface biofilm
same,ER (expression ratio) gene arsC,E. coli K12 genes; 10 μg/mL ursolic acid,−1.5
same,ER (expression ratio) gene b0309,E. coli K12 genes; 10 μg/mL ursolic acid,−1.7
same,ER (expression ratio) gene b0484,E. coli K12 genes; 10 μg/mL ursolic acid,−1.5
same,ER (expression ratio) gene b0485,E. coli K12 genes; 10 μg/mL ursolic acid,−1.8
same,ER (expression ratio) gene b0829,E. coli K12 genes; 10 μg/mL ursolic acid,−1.5
same,ER (expression ratio) gene b1729,E. coli K12 genes; 10 μg/mL ursolic acid,−5.6
same,ER (expression ratio) gene b2379,E. coli K12 genes; 10 μg/mL ursolic acid,−1.5
same,ER (expression ratio) gene b2789,E. coli K12 genes; 10 μg/mL ursolic acid,−1.9
same,ER (expression ratio) gene cspF,E. coli K12 genes; 10 μg/mL ursolic acid,−1.6
same,ER (expression ratio) gene cspG,E. coli K12 genes; 10 μg/mL ursolic acid,−2.5
same,ER (expression ratio) gene cysB,E. coli K12 genes; 10 μg/mL ursolic acid,−1.7
same,ER (expression ratio) gene cysD,E. coli K12 genes; 10 μg/mL ursolic acid,−2.5
same,ER (expression ratio) gene cysI,E. coli K12 genes; 10 μg/mL ursolic acid,−1.5
same,ER (expression ratio) gene cysJ,E. coli K12 genes; 10 μg/mL ursolic acid,−3.6
same,ER (expression ratio) gene cysK,E. coli K12 genes; 10 μg/mL ursolic acid,−3.6
same,ER (expression ratio) gene frvR,E. coli K12 genes; 10 μg/mL ursolic acid,−5.4
same,ER (expression ratio) gene gntU_1,E. coli K12 genes; 10 μg/mL ursolic acid,−1.5
same,ER (expression ratio) gene hdeA,E. coli K12 genes; 10 μg/mL ursolic acid,−1.7
same,ER (expression ratio) gene hdeB,E. coli K12 genes; 10 μg/mL ursolic acid,−1.8
same,ER (expression ratio) gene narH,E. coli K12 genes; 10 μg/mL ursolic acid,−1.6
same,ER (expression ratio) gene pheM,E. coli K12 genes; 10 μg/mL ursolic acid,−1.6
same,ER (expression ratio) gene pheP,E. coli K12 genes; 10 μg/mL ursolic acid,−1.5
same,ER (expression ratio) gene rimL,E. coli K12 genes; 10 μg/mL ursolic acid,−1.5
same,ER (expression ratio) gene rmf,E. coli K12 genes; 10 μg/mL ursolic acid,−1.5
same,ER (expression ratio) gene rpml,E. coli K12 genes; 10 μg/mL ursolic acid,−1.6
same,ER (expression ratio) gene slp,E. coli K12 genes; 10 μg/mL ursolic acid,−1.5
same,ER (expression ratio) gene ugpB,E. coli K12 genes; 10 μg/mL ursolic acid,−1.4
same,ER (expression ratio) gene ybhG,E. coli K12 genes; 10 μg/mL ursolic acid,−1.4
same,ER (expression ratio) gene ybiK,E. coli K12 genes; 10 μg/mL ursolic acid,−2.4
same,ER (expression ratio) gene yeeD,E. coli K12 genes; 10 μg/mL ursolic acid,−2.3
same,ER (expression ratio) gene yeeE,E. coli K12 genes; 10 μg/mL ursolic acid,−13
same,ER (expression ratio) gene yhaD,E. coli K12 genes; 10 μg/mL ursolic acid,−1.6
same,ER (expression ratio) gene yhaF,E. coli K12 genes; 10 μg/mL ursolic acid,−1.5
same,ER (expression ratio) gene yhaG,E. coli K12 genes; 10 μg/mL ursolic acid,−2
same,ER (expression ratio) gene yhaU,E. coli K12 genes; 10 μg/mL ursolic acid,−1.9
same,ER (expression ratio) gene yjeB,E. coli K12 genes; 10 μg/mL ursolic acid,−1.4
same,ER (expression ratio) gene arsC,E. coli K12 genes; 30 μg/mL ursolic acid,1.4
same,ER (expression ratio) gene b0309,E. coli K12 genes; 30 μg/mL ursolic acid,−1.3
same,ER (expression ratio) gene b0484,E. coli K12 genes; 30 μg/mL ursolic acid,−1.1
same,ER (expression ratio) gene b0485,E. coli K12 genes; 30 μg/mL ursolic acid,−1.3
same,ER (expression ratio) gene b0829,E. coli K12 genes; 30 μg/mL ursolic acid,−1.5
same,ER (expression ratio) gene b1729,E. coli K12 genes; 30 μg/mL ursolic acid,−2
same,ER (expression ratio) gene b2379,E. coli K12 genes; 30 μg/mL ursolic acid,1
same,ER (expression ratio) gene b2789,E. coli K12 genes; 30 μg/mL ursolic acid,−2.5
same,ER (expression ratio) gene cspF,E. coli K12 genes; 30 μg/mL ursolic acid,−1.1
same,ER (expression ratio) gene cspG,E. coli K12 genes; 30 μg/mL ursolic acid,−1.7
same,ER (expression ratio) gene cysB,E. coli K12 genes; 30 μg/mL ursolic acid,−1.4
same,ER (expression ratio) gene cysD,E. coli K12 genes; 30 μg/mL ursolic acid,−2.5
same,ER (expression ratio) gene cysI,E. coli K12 genes; 30 μg/mL ursolic acid,−1.7
same,ER (expression ratio) gene cysJ,E. coli K12 genes; 30 μg/mL ursolic acid,−3.3
same,ER (expression ratio) gene cysK,E. coli K12 genes; 30 μg/mL ursolic acid,−3.3
same,ER (expression ratio) gene frvR,E. coli K12 genes; 30 μg/mL ursolic acid,−2
same,ER (expression ratio) gene gntU_1,E. coli K12 genes; 30 μg/mL ursolic acid,−1.4
same,ER (expression ratio) gene hdeA,E. coli K12 genes; 30 μg/mL ursolic acid,−1.4
same,ER (expression ratio) gene hdeB,E. coli K12 genes; 30 μg/mL ursolic acid,−1.4
same,ER (expression ratio) gene narH,E. coli K12 genes; 30 μg/mL ursolic acid,−1.4
same,ER (expression ratio) gene pheM,E. coli K12 genes; 30 μg/mL ursolic acid,1
same,ER (expression ratio) gene pheP,E. coli K12 genes; 30 μg/mL ursolic acid,−1.1
same,ER (expression ratio) gene rimL,E. coli K12 genes; 30 μg/mL ursolic acid,1
same,ER (expression ratio) gene rmf,E. coli K12 genes; 30 μg/mL ursolic acid,1
same,ER (expression ratio) gene rpml,E. coli K12 genes; 30 μg/mL ursolic acid,1
same,ER (expression ratio) gene slp,E. coli K12 genes; 30 μg/mL ursolic acid,−1.6
same,ER (expression ratio) gene ugpB,E. coli K12 genes; 30 μg/mL ursolic acid,−1.5
same,ER (expression ratio) gene ybhG,E. coli K12 genes; 30 μg/mL ursolic acid,−1.4
same,ER (expression ratio) gene ybiK,E. coli K12 genes; 30 μg/mL ursolic acid,-2.2
same,ER (expression ratio) gene yeeD,E. coli K12 genes; 30 μg/mL ursolic acid,−1.4
same,ER (expression ratio) gene yeeE,E. coli K12 genes; 30 μg/mL ursolic acid,−2
same,ER (expression ratio) gene yhaD,E. coli K12 genes; 30 μg/mL ursolic acid,−2.6
same,ER (expression ratio) gene yhaF,E. coli K12 genes; 30 μg/mL ursolic acid,−2.4
same,ER (expression ratio) gene yhaG,E. coli K12 genes; 30 μg/mL ursolic acid,−2.2
same,ER (expression ratio) gene yhaU,E. coli K12 genes; 30 μg/mL ursolic acid,−4.2
same,ER (expression ratio) gene yjeB,E. coli K12 genes; 30 μg/mL ursolic acid,1
